pIC50: −log10 of the molar value.
Test system: 422866-222-R5-J1-PDC spheroids with HUVEC/MSC, viability
Experiment: Anticancer human tumor 422866-222-R5-J1-PDC patient-derived pancreatic adenocarcinoma cell line growth inhibition [GQUAD]
Conditions: for pIC50: curve of first compound; for viability, T/C: stronger effect = lower value
Summary of the method: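 Viability of tumor cells grown as complex spheroids with endothelial and stromal cells, exposed to drug combinations. Top concentration at or near clinical Cmax (else 10 microM), diluted in half-log increments.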

[1] = second compound 0.0316 µM, first compound 0.0316 µM
[2] = second compound 0.0316 µM, first compound 0.1 µM
[3] = second compound 0.0316 µM, first compound 0.316 µM
[4] = second compound 0.0316 µM, first compound 1 µM
[5] = second compound 0.0316 µM, first compound 3.16 µM
[6] = second compound 0.0316 µM, first compound 10 µM
[7] = second compound 0.1 µM, first compound 0.0316 µM
[8] = second compound 0.1 µM, first compound 0.1 µM
[9] = second compound 0.1 µM, first compound 0.316 µM
[10] = second compound 0.1 µM, first compound 1 µM
[11] = second compound 0.1 µM, first compound 3.16 µM
[12] = second compound 0.1 µM, first compound 10 µM
[13] = second compound 0.316 µM, first compound 0.0316 µM
[14] = second compound 0.316 µM, first compound 0.1 µM
[15] = second compound 0.316 µM, first compound 0.316 µM
[16] = second compound 0.316 µM, first compound 1 µM
[17] = second compound 0.316 µM, first compound 3.16 µM
[18] = second compound 0.316 µM, first compound 10 µM
[19] = second compound 1 µM, first compound 0.0316 µM
[20] = second compound 1 µM, first compound 0.1 µM
[21] = second compound 1 µM, first compound 0.316 µM
[22] = second compound 1 µM, first compound 1 µM
[23] = second compound 1 µM, first compound 3.16 µM
[24] = second compound 1 µM, first compound 10 µM
[25] = second compound 3.16 µM, first compound 0.0316 µM
[26] = second compound 3.16 µM, first compound 0.1 µM
[27] = second compound 3.16 µM, first compound 0.316 µM
[28] = second compound 3.16 µM, first compound 1 µM
[29] = second compound 3.16 µM, first compound 3.16 µM
[30] = second compound 3.16 µM, first compound 10 µM
[31] = second compound 10 µM, first compound 0.0316 µM
[32] = second compound 10 µM, first compound 0.1 µM
[33] = second compound 10 µM, first compound 0.316 µM
[34] = second compound 10 µM, first compound 1 µM
[35] = second compound 10 µM, first compound 3.16 µM
[36] = second compound 10 µM, first compound 10 µM
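Further: spheroids exposed to compounds for seven days before reading.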
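Wherever viability, T/C is given: percent viability relative to DMSO vehicle control taken as 100%.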

Structure (SMILES): CCCS(=O)(=O)Nc1ccc(F)c(C(=O)c2c[nH]c3ncc(-c4ccc(Cl)cc4)cc23)c1F + Cc1[nH]c2ccc(F)cc2c1-c1nc2c3cccnc3c3ncccc3c2[nH]1
- pIC50 (second compound 0.0316 µM): 6.25
- pIC50 (second compound 0.1 µM): 5.99
- pIC50 (second compound 0.316 µM): 5.96
- pIC50 (second compound 1 µM): 6.23
- pIC50 (second compound 3.16 µM): 6.53
- pIC50 (second compound 10 µM): 6.86
- viability, T/C [1]: 114%
- viability, T/C [2]: 93.4%
- viability, T/C [3]: 61.5%
- viability, T/C [4]: 37.4%
- viability, T/C [5]: 34.5%
- viability, T/C [6]: 36.7%
- viability, T/C [7]: 110%
- viability, T/C [8]: 88.5%
- viability, T/C [9]: 61.4%
- viability, T/C [10]: 52.4%
- viability, T/C [11]: 40.6%
- viability, T/C [12]: 32.3%
- viability, T/C [13]: 134%
- viability, T/C [14]: 95.6%
- viability, T/C [15]: 75.6%
- viability, T/C [16]: 43.8%
- viability, T/C [17]: 43.4%
- viability, T/C [18]: 29%
- viability, T/C [19]: 85.2%
- viability, T/C [20]: 90.3%
- viability, T/C [21]: 63.1%
- viability, T/C [22]: 41.5%
- viability, T/C [23]: 38.1%
- viability, T/C [24]: 37%
- viability, T/C [25]: 67.3%
- viability, T/C [26]: 52.8%
- viability, T/C [27]: 53.1%
- viability, T/C [28]: 45.2%
- viability, T/C [29]: 43%
- viability, T/C [30]: 41.9%
- viability, T/C [31]: 58.2%
- viability, T/C [32]: 50.8%
- viability, T/C [33]: 47.5%
- viability, T/C [34]: 50.3%
- viability, T/C [35]: 43.2%
- viability, T/C [36]: 49.9%

Structure (SMILES): CC(C)n1c(=O)n(C)c2cnc3cc(F)c(-c4ccc(OCCCN5CCCCC5)nc4)cc3c21 + CN(C)c1ccc(Nc2c3ccc(NC(=O)CCN4CCCC4)cc3nc3cc(NC(=O)CCN4CCCC4)ccc23)cc1
- pIC50 (second compound 0.0316 µM): < 5.00
- pIC50 (second compound 0.1 µM): < 5.00
- pIC50 (second compound 0.316 µM): < 5.00
- pIC50 (second compound 1 µM): < 5.00
- pIC50 (second compound 3.16 µM): < 5.00
- pIC50 (second compound 10 µM): < 5.00
- viability, T/C [1]: 99.8%
- viability, T/C [2]: 99%
- viability, T/C [3]: 93.5%
- viability, T/C [4]: 96%
- viability, T/C [5]: 103%
- viability, T/C [6]: 67.1%
- viability, T/C [7]: 100%
- viability, T/C [8]: 78.5%
- viability, T/C [9]: 101%
- viability, T/C [10]: 90.5%
- viability, T/C [11]: 90.7%
- viability, T/C [12]: 70%
- viability, T/C [13]: 103%
- viability, T/C [14]: 95.4%
- viability, T/C [15]: 92.4%
- viability, T/C [16]: 81.2%
- viability, T/C [17]: 88.8%
- viability, T/C [18]: 70.2%
- viability, T/C [19]: 87.2%
- viability, T/C [20]: 92.5%
- viability, T/C [21]: 87.9%
- viability, T/C [22]: 98.6%
- viability, T/C [23]: 83.8%
- viability, T/C [24]: 55.1%
- viability, T/C [25]: 82.8%
- viability, T/C [26]: 80.1%
- viability, T/C [27]: 86.8%
- viability, T/C [28]: 88.9%
- viability, T/C [29]: 81.6%
- viability, T/C [30]: 61.6%
- viability, T/C [31]: 73.8%
- viability, T/C [32]: 80.9%
- viability, T/C [33]: 80.4%
- viability, T/C [34]: 64.3%
- viability, T/C [35]: 68.5%
- viability, T/C [36]: 51.7%
